Assay results published in patent publication US20220146526A1, “METHOD FOR EVALUATING SAMPLE, ANALYSIS METHOD, METHOD FOR DETECTING DEGRADED SAMPLE, MARKER FOR DETECTING DEGRADED BLOOD PLASMA SAMPLE, AND MARKER FOR DETECTING DEGRADED SERUM SAMPLE” (SHIMADZU CORPORATION, priority 2019, published 2022).

Tests used:
Format in all cases: physicochemical, human
[1] = LC/MS of serum sample: number of times of freezing and thawing (Table M); set-up: key to Rate of increase or decrease: detection intensity relative to 1 at 2 freeze-thaw cycles; conditions: for Number of times when compound is affected / Increase or decrease: serum sample, LC/MS; for Number of times when compound is affected: detection intensity changed by 30% or more vs 2 times of freezing and thawing; for Increase or decrease: detection intensity vs 2 times of freezing and thawing
Method in brief: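 Values are detection intensities relative to serum thawed twice, versus 4, 6 or 10 freeze-thaw cycles. Serum came from blood spun at room temperature, 3500 rpm for 5 minutes. Analysis: electrospray LC/MS in MRM mode, Discovery HS F5-3 column, 40° C, 0.1% formic acid in water and acetonitrile.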

[2] = LC/MS of blood plasma sample: number of times of freezing and thawing (Table F); conditions: for Rate of increase or decrease: detection intensity relative to 1 at 2 times; for Increase or decrease: detection intensity
Method in brief: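 Values are detection intensities normalised to 1 for plasma thawed twice, compared against 4, 6 and 10 freeze-thaw cycles. Measured by electrospray LC/MS in MRM mode, formic acid water/acetonitrile mobile phase, column at 40° C. Plasma came from EDTA blood, cooled to 4° C and spun at 3000 rpm for 15 min.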

[3] = LC/MS of blood plasma sample: time from blood collection to centrifugation (Table D); conditions: for Rate of increase or decrease: detection intensity relative to 1 at 15 minutes; for Rate of increase or decrease / Increase or decrease: blood collection to centrifugation; for Increase or decrease: detection intensity; for Rate of increase or decrease (second value, decrease) / Rate of increase or decrease (first value, increase): different from individual to individual, relative to 1 at 15 minutes, collection to centrifugation; for Rate of increase or decrease (second value, decrease): individuals with decrease; for Rate of increase or decrease (first value, increase): individuals with increase
Method in brief: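 Detection intensities are expressed relative to samples centrifuged 15 min after collection (=1), measured by electrospray LC/MS in MRM mode (Discovery HS F5-3, 40 °C, formic acid water/acetonitrile gradient at 0.25 mL/min). EDTA blood from a healthy donor was held at 4 °C, centrifuged at 4 °C, 3000 rpm, 15 min, and plasma frozen.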

[4] = LC/MS of serum sample: time from blood collection to centrifugation (Table J); conditions: for Increase or decrease / Time when compound is affected: serum sample, LC/MS; for Increase or decrease: detection intensity vs 15 minutes from blood collection to centrifugation; for Time when compound is affected: time from blood collection to centrifugation, detection intensity changed by 30% or more vs 15 minutes
Method in brief: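 Detection intensities are expressed relative to 1 for samples centrifuged 15 min after blood collection; centrifugation was at room temperature, 3500 rpm, 5 min. Frozen serum was run by electrospray LC-MS in MRM mode, with 0.1% formic acid water/acetonitrile at 0.25 mL/min on a 40 °C F5 column.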

[5] = LC/MS of serum sample: time from centrifugation to isolation (Table K); set-up: key to Rate of increase or decrease: detection intensity relative to the 30-minute value set as 1; conditions: for Increase or decrease / Time when compound is affected: serum sample, LC/MS; for Increase or decrease: detection intensity vs 30 minutes from centrifugation to isolation; for Time when compound is affected: time from centrifugation to isolation, detection intensity changed by 30% or more vs 30 minutes
Protocol: After standing, the blood sample was subjected to centrifugation under a condition of room temperature, 3500 rpm, and 5 minutes. […] After centrifugation, the blood-collecting vessel was left to stand at room temperature, and the serum was isolated during this time. Here, in order to investigate how the detection intensity of molecules contained in the sample was affected in cases where the time during which the blood-collecting vessel was left at room temperature was set to 1 hour and 6 hours as compared to that in a case where the time was set to 30 minutes, preparations were performed under the respective conditions of 30 minutes, 1 hour, and 6 hours. The obtained serum sample was frozen and stored. Here, in order to investigate how the detection intensity of molecules contained in the sample was affected in cases where freezing and thawing was performed 4 times, 6 times, and 10 times after freezing as compared to that in a case where freezing and thawing was performed 2 times after freezing, freezing and thawing was performed under the respective conditions of 2, 4, 6, and 10 times.
(§1) Frozen blood plasma samples and serum samples were subjected to GC/MS or LC/MS. In GC/MS, the blood plasma samples and serum samples were subjected to methoxymation and trimethylsilylation and then introduced to GC-MS.
(§2) Analysis column: Discovery HS F5-3 (inner diameter of 2.1 mm, length of 150 mm, film thickness of 3 μm) (Sigma-Aldrich)
(§3) Column temperature: 40° C.
(§4) (A) 0.1% formic acid (dissolved in water)
(§5) (B) 0.1% formic acid (dissolved in acetonitrile)
(§6) Flow velocity: 0.25 mL/min
(§7) Ionization method: electrospray
(§8) Temperature: • Desolvation Line (DL) temperature: 250° C. • Heat block temperature: 400° C. • Interface temperature: 300° C.
(§9) Gas flow rate: • Nebulizer gas flow rate: 3.0 L/min • Drying gas flow rate: 10.0 L/min • Heating gas flow rate: 10.0 L/min
(§10) Mode: multiple reaction monitoring (MRM)
The rate of increase or decrease in Table K is the value of detection intensity relative to 1 that is the detection intensity in a case where the time from centrifugation to isolation is set to 30 minutes.

[6] = LC/MS of blood plasma sample: time from blood collection to cooling of blood (Table E); set-up: key to Rate of increase or decrease / Rate of increase or decrease (first value, increase): detection intensity relative to ≤1 min to cooling = 1
Protocol: At room temperature, 5 mL of blood from a healthy subject was taken into a blood-collecting vessel containing EDTA, and the blood-collecting vessel was inverted for mixing, then cooled, and allowed to stand at 4° C. Here, in order to investigate how the detection intensity of molecules contained in the sample was affected in a case where the time to cooling was set to 5 minutes or more as compared to that in a case where the time to cooling was set to 1 minute or less, preparations were performed under both the former condition and the latter condition. After standing, the blood sample was subjected to centrifugation under a condition of 4° C., 3000 rpm, and 15 minutes. […] After centrifugation, the blood-collecting vessel was left to stand at room temperature for 30 minutes, and the blood plasma was isolated during this 30 minutes. The obtained blood plasma sample was frozen and stored. Here, in order to investigate how the detection intensity of molecules contained in the sample was affected in cases where freezing and thawing was performed 4 times, 6 times, and 10 times after freezing as compared to that in a case where freezing and thawing was performed 2 times after freezing, freezing and thawing was performed under the respective conditions of 2, 4, 6, and 10 times.
as §1, §2, §3, §4, §5, §6, §7, §8, §9, §10
The rate of increase or decrease in Table E is the value of detection intensity relative to 1 that is the detection intensity in a case where the time from blood collection to cooling is set to 1 minute or less.

[7] = GC/MS of blood plasma sample: time from blood collection to centrifugation (Table A); conditions: blood collection to centrifugation
Method in brief: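 Read-out is MRM detection intensity by electron-ionization GC/MS on a BPX5 column after methoxymation and trimethylsilylation, expressed relative to a 15-minute collection-to-centrifugation interval. Plasma was prepared from EDTA blood held at 4° C and spun at 4° C, 3000 rpm for 15 minutes, then frozen.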

[8] = freezing and thawing 4 times vs 2 times
[9] = after 6 hours from blood collection to centrifugation, detection intensity relative to 1 at 15 minutes
[10] = 6 times of freezing and thawing, detection intensity relative to 1 at 2 times
[11] = 4 times of freezing and thawing, detection intensity relative to 1 at 2 times
[12] = after 4 hours from blood collection to centrifugation, detection intensity relative to 1 at 15 minutes
[13] = after 1 hour, relative to 1 at 30 minutes, different from individual to individual, second value (decrease)
[14] = after 1 hour from centrifugation to isolation, detection intensity relative to 1 at 30 minutes

| Number of times when compound is affected [1] | Increase or decrease [1] | Increase or decrease ([3]; after 12 hours vs 15 minutes) | Increase or decrease [4] | Time when compound is affected [4] | Increase or decrease [5] | Time when compound is affected [5] | Rate of increase or decrease [1, 11] | Rate of increase or decrease [4, 12] | Rate of increase or decrease [5, 14] | Compound | other results |
| --- | --- | --- | --- | --- | --- | --- | --- | --- | --- | --- | --- |
| 6 times | Decrease | – | Decrease | After 4 hours | Decrease | After 1 hour hours | – | 0.08 | 0.57 | Nc1nc2c(ncn2[C@@H]2O[C@H](CO)[C@@H](O)[C@H]2O)c(=O)[nH]1 [Guanosine] | Rate of increase or decrease [1, 10]: 0.62; Rate of increase or decrease ([2]; freezing and thawing 6 times): 0.58; Increase or decrease ([2]; freezing and thawing 6 times vs 2 times): Decrease; Rate of increase or decrease ([3]; after 6 hours): 1.57; Increase or decrease ([3]; after 6 hours vs 15 minutes): Increase |
| 10 times | Decrease | – | Increase | After 4 hours | Increase | After 1 hour hours | – | 1.33 | 1.38 | O=C(O)CC(O)C(=O)O (stereo not shown) [Malic acid] | Rate of increase or decrease ([1]; 10 times of freezing and thawing, detection intensity relative to 1 at 2 times): 0.64; Rate of increase or decrease ([2]; freezing and thawing 4 times): 2.37; Increase or decrease [2, 8]: Increase; Rate of increase or decrease ([3]; after 6 hours): 0.58; Increase or decrease ([3]; after 6 hours vs 15 minutes): Decrease; Rate of increase or decrease ([7]; detection intensity relative to 1 at 15 minutes, after 12 hours): 1.36; Increase or decrease ([7]; detection intensity, after 12 hours vs 15 minutes): Increase |
| 4 times | Increase | Different from individual | Increase | After 6 hours | Increase | After 6 hours | 1.55 | – | – | C[S+]([O-])CC[C@H](N)C(=O)O (stereo partly shown) [Methionine sulfoxide] | Rate of increase or decrease (second value, decrease) ([3]; after 12 hours): 0.54; Rate of increase or decrease (first value, increase) ([3]; after 12 hours): 1.36; Rate of increase or decrease [4, 9]: 1.65; Rate of increase or decrease ([5]; after 6 hours from centrifugation to isolation, detection intensity relative to 1 at 30 minutes): 1.77 |

The remaining lines, values behind:

| Compound | Number of times when compound is affected [1] | Increase or decrease [1] | Increase or decrease ([3]; after 12 hours vs 15 minutes) | Increase or decrease [4] | Time when compound is affected [4] | Increase or decrease [5] | Time when compound is affected [5] | Rate of increase or decrease [1, 11] | Rate of increase or decrease [4, 12] | Rate of increase or decrease [5, 14] | other results |
| --- | --- | --- | --- | --- | --- | --- | --- | --- | --- | --- | --- |
| N=C(N)NCCC[C@H](NC(CC(=O)O)C(=O)O)C(=O)O (stereo partly shown) [Argininosuccinic acid] | 6 times | Different from individual | Decrease | Decrease | After 6 hours | Increase | After 1 hour hours | – | – | – | Rate of increase or decrease ([1]; 6 times of freezing and thawing, relative to 1 at 2 times, different from individual to individual, first value (increase)): 1.38; Rate of increase or decrease ([1]; 6 times of freezing and thawing, relative to 1 at 2 times, different from individual to individual, second value (decrease)): 0.49; Rate of increase or decrease ([2]; freezing and thawing 4 times): 2.01; Increase or decrease [2, 8]: Increase; Rate of increase or decrease ([3]; after 12 hours): 0.61; Rate of increase or decrease [4, 9]: 0.65 |
| CN(C)C(N)=NCCC[C@H](N)C(=O)O [Asymmetric dimethylarginine] | 6 times | Decrease | Different from individual | – | – | – | – | – | – | – | Rate of increase or decrease [1, 10]: 0.69; Rate of increase or decrease (second value, decrease) ([3]; after 12 hours): 0.66; Rate of increase or decrease (first value, increase) ([3]; after 12 hours): 1.78; Rate of increase or decrease ([6]; detection intensity relative to 1 at 1 minute or less, blood collection to cooling 5 minutes): 1.31; Increase or decrease ([6]; detection intensity, blood collection to cooling 5 minutes or more vs 1 minute or less): Increase |
| NCCC(=O)N[C@@H](Cc1cnc[nH]1)C(=O)O [Carnosine, carnosine] | 4 times | Decrease | – | Increase | After 4 hours | Different from individual | After 1 hour hours | 0.59 | 2.83 | – | Rate of increase or decrease ([5]; after 1 hour, relative to 1 at 30 minutes, different from individual to individual, first value (increase)): 1.41; Rate of increase or decrease [5, 13]: 0.56 |
| N[C@@H](CSSC[C@H](N)C(=O)O)C(=O)O [Cystine] | 4 times | Increase | Decrease | – | – | Decrease | After 1 hour hours | 1.56 | – | 0.67 | Rate of increase or decrease ([2]; freezing and thawing 10 times): 0.54; Increase or decrease ([2]; freezing and thawing 10 times vs 2 times): Decrease; Rate of increase or decrease ([3]; after 12 hours): 0.45 |
| Nc1nc2c(ncn2[C@@H]2O[C@@H]3COP(=O)(O)O[C@H]3[C@H]2O)c(=O)[nH]1 [Guanosine 3′,5′-cyclic monophosphate, guanosine 3′,5′-cyclic monophosphate] | 4 times | Increase | – | Different from individual | After 4 hours | Different from individual | After 1 hour hours | 1.47 | – | – | Rate of increase or decrease ([4]; after 4 hours, relative to 1 at 15 minutes, different from individual to individual, first value (increase)): 3.62; Rate of increase or decrease ([4]; after 4 hours, relative to 1 at 15 minutes, different from individual to individual, second value (decrease)): 0.58; Rate of increase or decrease [5, 13]: 0.46 |
